Laboratory results published in PubChem BioAssay (NCI).
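At the GI50, growth is halved. TGI denotes the concentration required for complete inhibition of growth.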

Assays:
Assay in all cases: NCI anticancer screen, dose series, 384-well format
UO-31 renal = test system: UO-31 renal
M14 melanoma = test system: M14 melanoma
HT29 colon = test system: HT29 colon
RPMI-8226 leukemia = test system: RPMI-8226 leukemia
K-562 leukemia = test system: K-562 leukemia
UACC-257 melanoma = test system: UACC-257 melanoma
ACHN renal = test system: ACHN renal
SF-539 CNS = test system: SF-539 CNS
A498 renal = test system: A498 renal
NCI-H23 lung = test system: NCI-H23 lung
NCI/ADR-RES ovarian = test system: NCI/ADR-RES ovarian
A549 NSCLC = test system: A549 NSCLC
NCI-H226 lung = test system: NCI-H226 lung
PC-3 prostate = test system: PC-3 prostate
786-0 renal = test system: 786-0 renal
TK-10 renal = test system: TK-10 renal
HCC-2998 colon = test system: HCC-2998 colon
MOLT-4 leukemia = test system: MOLT-4 leukemia
HL-60(TB) leukemia = test system: HL-60(TB) leukemia
NCI-H460 NSCLC = test system: NCI-H460 NSCLC
SF-268 CNS = test system: SF-268 CNS
HCT-15 colon = test system: HCT-15 colon
OVCAR-5 ovarian = test system: OVCAR-5 ovarian
HCT-116 colon = test system: HCT-116 colon
SK-MEL-28 melanoma = test system: SK-MEL-28 melanoma
CCRF-CEM leukemia = test system: CCRF-CEM leukemia
U251 glioblastoma = test system: U251 glioblastoma
IGROV1 ovarian = test system: IGROV1 ovarian
EKVX NSCLC = test system: EKVX NSCLC
SNB-19 CNS = test system: SNB-19 CNS
NCI-H322M lung = test system: NCI-H322M lung
KM12 colon = test system: KM12 colon
NCI-H522 lung = test system: NCI-H522 lung
HOP-62 NSCLC = test system: HOP-62 NSCLC
COLO 205 colon = test system: COLO 205 colon
SF-295 CNS = test system: SF-295 CNS
SW-620 colon = test system: SW-620 colon
SK-MEL-2 melanoma = test system: SK-MEL-2 melanoma
SK-MEL-5 melanoma = test system: SK-MEL-5 melanoma
OVCAR-4 ovarian = test system: OVCAR-4 ovarian
MDA-MB-468 breast = test system: MDA-MB-468 breast
CAKI-1 renal = test system: CAKI-1 renal
MCF7 breast = test system: MCF7 breast
UACC-62 melanoma = test system: UACC-62 melanoma
MDA-MB-435 melanoma = test system: MDA-MB-435 melanoma
HOP-92 NSCLC = test system: HOP-92 NSCLC
SNB-75 CNS = test system: SNB-75 CNS

Molecule `Cc1ncsc1-c1ccc(CNC(=O)[C@@H]2C[C@@H](O)CN2C(=O)[C@@H](NC(=O)C2(C#N)CC2)C(C)(C)C)cc1` has a GI50 (UO-31 renal) greater than 100 µM, a TGI (UO-31 renal) greater than 100 µM and a GI50 (M14 melanoma) greater than 100 µM. For the same molecule, the TGI (M14 melanoma) was greater than 100 µM, the GI50 (HT29 colon) was greater than 100 µM and the TGI (HT29 colon) was greater than 100 µM. It also gave a GI50 (RPMI-8226 leukemia) of 46.7 µM, a TGI (RPMI-8226 leukemia) greater than 90.7 µM and a GI50 (K-562 leukemia) greater than 100 µM. It also gave a TGI (K-562 leukemia) greater than 100 µM, a GI50 (UACC-257 melanoma) greater than 100 µM and a TGI (UACC-257 melanoma) greater than 100 µM. For the same molecule, the GI50 (ACHN renal) was greater than 100 µM, the TGI (ACHN renal) was greater than 100 µM and the GI50 (SF-539 CNS) was greater than 100 µM. It also gave a TGI (SF-539 CNS) greater than 100 µM, a GI50 (A498 renal) greater than 100 µM and a TGI (A498 renal) greater than 100 µM. For the same molecule, the GI50 (NCI-H23 lung) was greater than 100 µM, the TGI (NCI-H23 lung) was greater than 100 µM and the GI50 (NCI/ADR-RES ovarian) was greater than 100 µM. For the same molecule, the TGI (NCI/ADR-RES ovarian) was greater than 100 µM, the GI50 (A549 NSCLC) was greater than 100 µM and the TGI (A549 NSCLC) was greater than 100 µM. The GI50 (NCI-H226 lung) was greater than 100 µM, the TGI (NCI-H226 lung) was greater than 100 µM and the GI50 (PC-3 prostate) was greater than 100 µM. The TGI (PC-3 prostate) was greater than 100 µM, the GI50 ([…]-0 renal) was greater than 100 µM and the TGI (786-0 renal) was greater than 100 µM. The GI50 (TK-10 renal) was greater than 100 µM, the TGI (TK-10 renal) was greater than 100 µM and the GI50 (HCC-2998 colon) was greater than 100 µM. It also gave a TGI (HCC-2998 colon) greater than 100 µM, a GI50 (MOLT-4 leukemia) greater than 100 µM and a TGI (MOLT-4 leukemia) greater than 100 µM. For the same molecule, the GI50 (HL-60(TB) leukemia) was greater than 100 µM, the TGI (HL-60(TB) leukemia) was greater than 100 µM and the GI50 (NCI-H460 NSCLC) was greater than 100 µM. The TGI (NCI-H460 NSCLC) was greater than 100 µM, the GI50 (SF-268 CNS) was 99.7 µM and the TGI (SF-268 CNS) was greater than 100 µM. For the same molecule, the GI50 (HCT-15 colon) was greater than 100 µM, the TGI (HCT-15 colon) was greater than 100 µM and the GI50 (OVCAR-5 ovarian) was greater than 100 µM. For the same molecule, the TGI (OVCAR-5 ovarian) was greater than 100 µM, the GI50 (HCT-116 colon) was greater than 100 µM and the TGI (HCT-116 colon) was greater than 100 µM. It also gave a GI50 (SK-MEL-28 melanoma) greater than 100 µM, a TGI (SK-MEL-28 melanoma) greater than 100 µM and a GI50 (CCRF-CEM leukemia) greater than 100 µM. For the same molecule, the TGI (CCRF-CEM leukemia) was greater than 100 µM, the GI50 (U251 glioblastoma) was greater than 100 µM and the TGI (U251 glioblastoma) was greater than 100 µM. The GI50 (IGROV1 ovarian) was greater than 100 µM, the TGI (IGROV1 ovarian) was greater than 100 µM and the GI50 (EKVX NSCLC) was greater than 100 µM. The TGI (EKVX NSCLC) was greater than 100 µM, the GI50 (SNB-19 CNS) was greater than 100 µM and the TGI (SNB-19 CNS) was greater than 100 µM. For the same molecule, the GI50 (NCI-H322M lung) was greater than 100 µM, the TGI (NCI-H322M lung) was greater than 100 µM and the GI50 (KM12 colon) was greater than 100 µM. It also gave a TGI (KM12 colon) greater than 100 µM, a GI50 (NCI-H522 lung) greater than 100 µM and a TGI (NCI-H522 lung) greater than 100 µM. It also gave a GI50 (HOP-62 NSCLC) greater than 100 µM, a TGI (HOP-62 NSCLC) greater than 100 µM and a GI50 (COLO 205 colon) greater than 100 µM. For the same molecule, the TGI (COLO 205 colon) was greater than 100 µM, the GI50 (SF-295 CNS) was greater than 100 µM and the TGI (SF-295 CNS) was greater than 100 µM. It also gave a GI50 (SW-620 colon) greater than 100 µM, a TGI (SW-620 colon) greater than 100 µM and a GI50 (SK-MEL-2 melanoma) greater than 100 µM. It also gave a TGI (SK-MEL-2 melanoma) greater than 100 µM, a GI50 (SK-MEL-5 melanoma) greater than 100 µM and a TGI (SK-MEL-5 melanoma) greater than 100 µM. The GI50 (OVCAR-4 ovarian) was greater than 100 µM, the TGI (OVCAR-4 ovarian) was greater than 100 µM and the GI50 (MDA-MB-468 breast) was greater than 100 µM. For the same molecule, the TGI (MDA-MB-468 breast) was greater than 100 µM, the GI50 (CAKI-1 renal) was greater than 100 µM and the TGI (CAKI-1 renal) was greater than 100 µM. For the same molecule, the GI50 (MCF7 breast) was greater than 100 µM, the TGI (MCF7 breast) was greater than 100 µM and the GI50 (UACC-62 melanoma) was greater than 100 µM. The TGI (UACC-62 melanoma) was greater than 100 µM, the GI50 (MDA-MB-435 melanoma) was greater than 100 µM and the TGI (MDA-MB-435 melanoma) was greater than 100 µM. For the same molecule, the GI50 (HOP-92 NSCLC) was greater than 100 µM, the TGI (HOP-92 NSCLC) was greater than 100 µM and the GI50 (SNB-75 CNS) was greater than 94.8 µM. It also gave a TGI (SNB-75 CNS) greater than 100 µM.
